Measurements from the Kinase Knowledgebase extract (Sharma et al. 2016).

Molecular target: MAPK14 (human) (UniProt Q16539)
Experiment: Inhibition of MAPK14 Kinase Activity
Details: for inhibition: concentration not given here

MAPK14 (human), sequence (Q16539 whole entry, looked up): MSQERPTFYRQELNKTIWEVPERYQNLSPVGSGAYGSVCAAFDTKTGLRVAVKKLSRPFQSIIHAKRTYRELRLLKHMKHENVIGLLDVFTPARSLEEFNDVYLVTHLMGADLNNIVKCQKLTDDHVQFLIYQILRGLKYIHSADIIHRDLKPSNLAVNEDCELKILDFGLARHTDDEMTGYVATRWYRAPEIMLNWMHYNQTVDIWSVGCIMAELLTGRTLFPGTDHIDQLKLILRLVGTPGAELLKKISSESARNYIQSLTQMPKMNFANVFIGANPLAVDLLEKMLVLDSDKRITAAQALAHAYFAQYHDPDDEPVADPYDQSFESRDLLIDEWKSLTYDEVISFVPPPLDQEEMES

| IC50 | inhibition | SMILES |
| --- | --- | --- |
| < 5 µM | – | CC(C)(C)c1cc(NC(=O)Nc2cccc(Cl)c2Cl)c(C(=O)N2CCN(CC(N)=O)C(=O)C2(C)C)[nH]1 |
| < 5 µM | – | CC(C)(C)c1cc(NC(=O)Nc2ccc(F)c(Cl)c2Cl)c(C(=O)N2CCNC(=O)C2(C)C)o1 |
| < 5 µM | – | CN(C)CCCCCN1CCN(C(=O)c2cc(C(C)(C)C)sc2NC(=O)Nc2cccc(Cl)c2Cl)C(C)(C)C1=O |
| < 5 µM | – | CC(C)(C)c1cc(C(=O)N2CCCN(S(C)(=O)=O)CC2)c(NC(=O)Nc2cccc(Cl)c2Cl)s1 |
| < 5 µM | – | Cc1noc(CN2CCN(C(=O)c3cc(C(C)(C)C)sc3NC(=O)Nc3cccc(Cl)c3Cl)C(C)(C)C2=O)n1 |
| < 5 µM | – | CN(C)CCN1CCN(C(=O)c2cc(C(C)(C)C)sc2NC(=O)Nc2cccc(Cl)c2Cl)C(C)(C)C1=O |
| – | 76 to 100% | COCOCCN1CCN(C(=O)c2cc(C(C)(C)C)sc2NC(=O)Nc2cccc(Cl)c2Cl)CCC1=O |
| < 5 µM | – | COc1ccccc1NC(=O)Nc1sc(C(C)(C)C)cc1C(=O)N1CCNC(=O)CC1 |
| < 5 µM | – | CC(C)(C)c1cc(C(=O)N2CCN(CC(=O)NCC3CC3)C(=O)C2(C)C)c(NC(=O)Nc2cccc(Cl)c2Cl)s1 |
| < 5 µM | – | CC(C)(C)c1cc(C(=O)N2CCNC(=O)C23CCCC3)c(NC(=O)Nc2cccc(Cl)c2Cl)s1 |
| < 5 µM | – | Cc1cccc(NC(=O)Nc2sc(C(C)(C)C)cc2C(=O)N2CCN(CCN(C)C)C(=O)C2(C)C)c1Cl |
| < 5 µM | – | CC(C)(C)c1cc(C(=O)N2CCNC(=O)C2(C)CC(=O)O)c(NC(=O)Nc2cccc(Cl)c2Cl)s1 (stereo not drawn) |
| < 5 µM | – | COC(=O)CN1CCN(C(=O)c2nc(C(C)(C)C)sc2NC(=O)Nc2cccc(Cl)c2Cl)C(C)(C)C1=O |
| < 5 µM | – | CC(C)(C)c1cc(C(=O)N2CCNC(=O)CC2)c(NC(=O)Nc2ccc(F)cc2Cl)s1 |
| < 5 µM | – | CC(C)(C)c1cc(C(=O)N2CCNC(=O)CC2)c(NC(=O)Nc2c(Cl)cncc2Cl)s1 |
| – | 51 to 75% | CC(C)(C)c1cc(C(=O)N2CCNC(=O)CC2)c(NC(=O)Nc2ccnc3ccccc23)s1 |
| – | 76 to 100% | CC(C)(C)c1cc(NC(=O)Nc2cccc(Cl)c2Cl)c(C(=O)N2CCNC(=O)CC2)s1 |
| – | 76 to 100% | COC(=O)CC1C(=O)NCCN1C(=O)c1cc(C(C)(C)C)sc1NC(=O)Nc1ccc2ccccc2c1 (stereo not drawn) |
| < 5 µM | – | CC(C)(C)c1cc(C(=O)N2CCNC(=O)C2(C)C)c(NC(=O)Nc2ccccc2C(C)(C)C)s1 |
| < 5 µM | – | COC(=O)CC1(C)C(=O)NCCN1C(=O)c1[nH]c(C(C)(C)C)cc1NC(=O)Nc1ccc(F)c(Cl)c1Cl (stereo not drawn) |
| < 5 µM | – | CC(=O)N1CCCN(C(=O)c2cc(C(C)(C)C)sc2NC(=O)Nc2cccc(Cl)c2Cl)CC1 |
| < 5 µM | – | CCc1ccccc1NC(=O)Nc1sc(C(C)(C)C)cc1C(=O)N1CCNC(=O)CC1 |
| < 5 µM | – | CC(C)(C)c1cc(C(=O)N2CCN(C(=O)N3CCOCC3)CC2)c(NC(=O)Nc2cccc(Cl)c2Cl)s1 |
| < 5 µM | – | CC(C)(C)c1cc(C(=O)N2CCNC(=O)CC2)c(NC(=O)Nc2ccccc2I)s1 |
| < 5 µM | – | CCOC(=O)CN1CCN(C(=O)c2cc(NC(=O)Nc3ccc(F)c(Cl)c3Cl)c(C(C)(C)C)s2)C(C)(CC(=O)OC)C1=O (stereo not drawn) |
| < 5 µM | – | CC(C)(C)c1nc(C(=O)N2CCC(=O)N(CCC(N)=O)CC2)c(NC(=O)Nc2cccc(Cl)c2Cl)s1 |
| < 5 µM | – | CC(C)(C)c1cc(C(=O)N2CCN(CC(N)=O)C(=O)C2(C)CC(N)=O)c(NC(=O)Nc2cccc(Cl)c2Cl)s1 (stereo not drawn) |

| IC50 | inhibition | SMILES |
| --- | --- | --- |
| < 5 µM | – | CONC(=O)CN1CCN(C(=O)c2cc(C(C)(C)C)sc2NC(=O)Nc2cccc(Cl)c2Cl)C(C)(CC(=O)NOC)C1=O (stereo not drawn) |
| < 5 µM | – | CN(C)CCNC(=O)CN1CCN(C(=O)c2sc(C(C)(C)C)cc2NC(=O)Nc2ccnc(Cl)c2Cl)C(C)(C)C1=O |
| < 5 µM | – | CCC1(C)C(=O)N(CC(=O)NCCN2CCOCC2)CCN1C(=O)c1cc(C(C)(C)C)sc1NC(=O)Nc1cccc(Cl)c1Cl (stereo not drawn) |
| < 5 µM | – | COc1cccc(NC(=O)Nc2sc(C(C)(C)C)cc2C(=O)N2CCN(CCN(C)C)C(=O)C2(C)C)c1Cl |
| – | 26 to 50% | Cn1ccc(NC(=O)Nc2sc(C(C)(C)C)cc2C(=O)N2CCNS(=O)(=O)CC2)n1 |
| < 5 µM | – | CCC1C(=O)NCCN1C(=O)c1cc(C(C)(C)C)sc1NC(=O)Nc1ccc(F)c(Cl)c1Cl (stereo not drawn) |
| – | 76 to 100% | CC(C)(C)c1cc(C(=O)N2CCNC(=O)CC2)c(NC(=O)Nc2ccc(CN)c3ccccc23)s1 |
| < 5 µM | – | CON(C)C(=O)CN1CCN(C(=O)c2cc(C(C)(C)C)sc2NC(=O)Nc2ccc(F)c(Cl)c2Cl)C(C)(C)C1=O |
| < 5 µM | – | CN(C)CCN1CCN(C(=O)c2[nH]c(C(C)(C)C)cc2NC(=O)Nc2cccc(Cl)c2Cl)C(C)(C)C1=O |
| < 5 µM | – | CC(C)(C)c1cc(NC(=O)Nc2ccc(F)c(Cl)c2Cl)c(C(=O)N2CCNC(=O)C2(C)C)[nH]1 |
| < 5 µM | – | CN(C)CCN1CCN(C(=O)c2cc(C(C)(C)C)sc2NC(=O)Nc2ccncc2Cl)C(C)(C)C1=O |
| < 5 µM | – | CN1CCN(C(=O)c2cc(C(C)(C)C)n(C)c2NC(=O)Nc2cccc(Cl)c2Cl)C(C)(C)C1=O |
| < 5 µM | – | COC(=O)CN1CCN(C(=O)c2cc(C(C)(C)C)sc2NC(=O)Nc2cccc(Cl)c2Cl)CC1 |
| < 5 µM | – | COC(=O)CC1(C)C(=O)NCCN1C(=O)c1cc(C(C)(C)C)[nH]c1NC(=O)Nc1cccc(Cl)c1Cl (stereo not drawn) |
| – | 76 to 100% | CC(C)(C)c1cc(C(=O)N2CCNS(=O)(=O)CC2)c(NC(=O)Nc2cc(Cl)cc(Cl)c2)s1 |
| < 5 µM | – | CC(C)(C)c1nc(C(=O)N2CCNC(=O)C2)c(NC(=O)Nc2cccc(Cl)c2Cl)s1 |
| < 5 µM | – | CC(C)(C)c1cc(C(=O)N2CCNC(=O)C2(C)C)c(NC(=O)Nc2ccncc2Cl)s1 |
| < 5 µM | – | CC(C)(C)c1cc(C(=O)N2CCS(=O)(=O)CC2)c(NC(=O)Nc2ccc(F)c(Cl)c2Cl)s1 |
| – | 76 to 100% | COCCN1CCN(C(=O)c2cc(C(C)(C)C)sc2NC(=O)Nc2cccc(Cl)c2Cl)CCC1=O |
| < 5 µM | – | CC(C)(C)c1nc(C(=O)N2CCNC(=O)C2(C)C)c(NC(=O)Nc2ccc(F)c(Cl)c2Cl)s1 |
| < 5 µM | – | CC1(C)OCC(CN2CCN(C(=O)c3cc(C(C)(C)C)sc3NC(=O)Nc3cccc(Cl)c3Cl)C(C)(C)C2=O)O1 (stereo not drawn) |
| < 5 µM | – | CCC1(C)C(=O)N(CC(=O)OC)CCN1C(=O)c1cc(C(C)(C)C)sc1NC(=O)Nc1cccc(Cl)c1Cl (stereo not drawn) |
| < 5 µM | – | CNC(=O)[C@@H]1CCCN1C(=O)c1cc(C(C)(C)C)sc1NC(=O)Nc1ccc(OC(F)F)c(Cl)c1Cl |
| < 5 µM | – | O=C1CCN(C(=O)c2cc(Cl)c(C(F)(F)F)cc2NC(=O)Nc2cccc(Cl)c2Cl)CCN1 |
| < 5 µM | – | CN(C)CCNC(=O)CN1CCN(C(=O)c2sc(C(C)(C)C)cc2NC(=O)Nc2ccc(F)c(Cl)c2Cl)C(C)(C)C1=O |
| – | 76 to 100% | CC(C)(C)c1cc(C(=O)N[C@@H]2CC(=O)NC2=O)c(NC(=O)Nc2ccc3ccccc3c2)s1 |
| < 5 µM | – | COc1ccc(NC(=O)Nc2sc(C(C)(C)C)cc2C(=O)N2CCNC(=O)CC2)c(Cl)c1Cl |

| IC50 | inhibition | SMILES |
| --- | --- | --- |
| < 5 µM | – | Cc1ccccc1NC(=O)Nc1sc(C(C)(C)C)cc1C(=O)N1CCNC(=O)C1(C)C |
| < 5 µM | – | Cc1c(F)cccc1NC(=O)Nc1sc(C(C)(C)C)cc1C(=O)N1CCNC(=O)C1(C)CCO (stereo not drawn) |
| < 5 µM | – | CN(C)CCN1CCN(C(=O)c2cc(C(C)(C)C)sc2NC(=O)Nc2cccc(Cl)c2Cl)CC(C)(C)C1=O |
| < 5 µM | – | CN(C)CCN1CCN(C(=O)c2cc(C(C)(C)C)sc2NC(=O)Nc2c(Cl)cncc2Cl)C(C)(C)C1=O |
| < 5 µM | – | CCC1(C)C(=O)N(CC(=O)NCCN(C)C)CCN1C(=O)c1cc(C(C)(C)C)sc1NC(=O)Nc1ccccc1C(F)(F)F (stereo not drawn) |
| < 5 µM | – | CC(C)(C)c1cc(C(=O)N2CCNC(=O)CC2)c(NC(=O)Nc2cc(F)cc(F)c2)s1 |
| < 5 µM | – | Cc1noc(CN2CCN(C(=O)c3cc(C(C)(C)C)sc3NC(=O)Nc3ccc(F)c(Cl)c3Cl)C(C)(C)C2=O)n1 |
| < 5 µM | – | CC(C)(C)c1cc(C(=O)N2CCNC(=O)CC2)c(NC(=O)Nc2cccnc2Cl)s1 |
| < 5 µM | – | CN(C)CCN1CCN(C(=O)c2oc(C(C)(C)C)cc2NC(=O)Nc2cccc(Cl)c2Cl)CCS1(=O)=O |
| < 5 µM | – | CCC1(C)C(=O)N(CC(=O)N(C)OC)CCN1C(=O)c1cc(C(C)(C)C)sc1NC(=O)Nc1cccc(Cl)c1Cl (stereo not drawn) |
| – | 76 to 100% | CC(C)(C)c1nc(NC(=O)Nc2cccc3ccccc23)c(C(=O)N2CCNC(=O)CC2)s1 |
| < 5 µM | – | CC(C)(C)c1cc(C(=O)N2CCNC(=O)C2(C)CC(N)=O)c(NC(=O)Nc2ccc(F)c(Cl)c2Cl)s1 (stereo not drawn) |
| – | 51 to 75% | CC(C)(C)c1cc(C(=O)N2CCNS(=O)(=O)CC2)c(NC(=O)NC(C)(C)c2ccccc2)s1 |
| < 5 µM | – | CC(C)(C)c1cc(C(=O)N2CCN(CCN3CCOCC3)C(=O)C2(C)C)c(NC(=O)Nc2cccc(Cl)c2Cl)s1 |
| – | 76 to 100% | CC(C)(C)c1cc(C(=O)N2CCNC(=O)CC2)c(NC(=O)Nc2cc(Cl)cc(Cl)c2)s1 |
| < 5 µM | – | CN(C)CCN1CCN(C(=O)c2[nH]c(C(C)(C)C)cc2NC(=O)Nc2ccc(F)c(Cl)c2Cl)CCC1=O |
| < 5 µM | – | CN(C)C(=O)N1CCN(C(=O)c2cc(C(C)(C)C)sc2NC(=O)Nc2cccc(Cl)c2Cl)CC1 |
| < 5 µM | – | COc1ccc(CCC(=O)N2CCN(C(=O)c3cc(C(C)(C)C)sc3NC(=O)Nc3cccc(Cl)c3Cl)CC2)cc1 |
| < 5 µM | – | CC(C)(C)c1cc(C(=O)N2CCN(CC(N)=O)C(=O)C2(C)C)c(NC(=O)Nc2cccc(Cl)c2Cl)s1 |
| < 5 µM | – | CCC1(C)C(=O)N(CC(=O)NCCN(C)C)CCN1C(=O)c1cc(C(C)(C)C)sc1NC(=O)Nc1ccc(F)cc1Cl (stereo not drawn) |
| < 5 µM | – | CC(C)(C)c1cc(C(=O)N2CCN(CC(=O)O)C(=O)C2(C)C)c(NC(=O)Nc2cccc(Cl)c2Cl)s1 |
| < 5 µM | – | CCC1(C)C(=O)NCCN1C(=O)c1cc(C(C)(C)C)sc1NC(=O)Nc1ccc(F)cc1Cl (stereo not drawn) |
| < 5 µM | – | CC(C)(C)c1cc(C(=O)N2CCNC(=O)CC2)c(NC(=O)Nc2ccccc2Cl)s1 |
| < 5 µM | – | CC(C)(C)c1nc(C(=O)N2CCNS(=O)(=O)CC2)c(NC(=O)Nc2cccc(Cl)c2Cl)s1 |
| – | 76 to 100% | CC(C)(C)c1cc(C(=O)N2CCNC(=O)CC2)c(NC(=O)Nc2ccc3ocnc3c2)s1 |
| < 5 µM | – | CC(C)(C)c1cc(C(=O)N2CCS(=O)(=O)CC2)c(NC(=O)Nc2cccc3c2OCO3)s1 |

| SMILES | IC50 | inhibition |
| --- | --- | --- |
| CC(C)(C)c1cc(C(=O)N2CCNC(=O)CC2)c(NC(=O)Nc2ccc(C#N)c(Cl)c2Cl)s1 | < 5 µM | – |
| CC(C)(C)c1cc(C(=O)N2CCNS(=O)(=O)CC2)c(NC(=O)Nc2ccc(C#N)c(Cl)c2)s1 | – | 76 to 100% |
| CC(C)(C)c1cc(C(=O)N2CCNC(=O)C2(C)C)c(NC(=O)Nc2ccc(C#N)c(Cl)c2Cl)s1 | < 5 µM | – |
